Test results taken from patent US20100286181A1, “PYRROLE DERIVATIVES WITH ANTIBACTERIAL ACTIVITY” (ASTRAZENECA AB, priority 2006, published 2010).

Molecular target: GyrB ATPase activity (E. coli GyrA, E. coli GyrB) (Escherichia coli, UniProt P0AES6)
Experiment: GyrB ATPase inhibition activity assay (ammonium molybdate/malachite green phosphate detection)
Assay type: biochemical
Details: figure quoted may be an average of two or more results
Description: Compounds may be tested for inhibition of GyrB ATPase activity using an ammonium molybdate/malachite green-based phosphate detection assay (Lanzetta, P. A., L. J. Alvarez, P. S. Reinach, and O. A. Candia, 1979, 100: 95-97). Assays can be performed in multiwell plates in 100 μl reactions containing: 50 mM HEPES buffer pH 7.5, 75 mM ammonium acetate, 5.5 mM magnesium chloride, 0.5 mM ethylenediaminetetraacetic acid, 5% glycerol, 1 mM 1,4-Dithio-DL-threitol, 200 nM bovine serum albumin, 5 μg/ml sheared salmon sperm DNA, 2.5 nM E. coli GyrA, 2.5 nM E. coli GyrB, 250 μM ATP, and compound in dimethylsulfoxide. Reactions can be quenched with 150 μl of ammonium molybdate/malachite green detection reagent containing 1.2 mM malachite green hydrochloride, 8.5 mM ammonium molybdate tetrahydrate, and 1 M hydrochloric acid.
Compounds of the Examples could be expected to have IC50 values of <200 μg/ml in one or both assays described herein above. For Example the following results were obtained in a GyrB ATPase inhibition activity assay substantially similar to the above wherein the figure quoted may be an average of two or more results

CO/N=C1\CN(c2nc(-c3ncnn3C)c(C(=O)OC)s2)CCC1NC(=O)c1[nH]c(C)c(Cl)c1Cl (stereo not shown) [Example 34, Methyl 2-[(3E)-4-{[(3,4-dichloro-5-methyl-1H-pyrrol-2-yl)carbonyl]amino}-3-(methoxyimino)piperidin-1-yl]-4-(1-methyl-1H-1,2,4-triazol-5-yl)-1,3-thiazole-5-carboxylate]
IC50: 66.8 nM

COCCNC(=O)c1nc(N2CC[C@@H](NC(=O)c3[nH]c(C)c(Cl)c3Cl)[C@@H](n3cc(COC)nn3)C2)sc1C(=O)O [Example 117]
IC50: < 9.77 nM

Cc1[nH]c(C(=O)N[C@H]2CCN(c3ncc(C(=O)O)s3)C[C@H]2N)c(Cl)c1Cl (racemic) [Example 68, cis(±)2-(3-Amino-4-{[(3,4-dichloro-5-methyl-1H-pyrrol-2-yl)carbonyl]amino}piperidin-1-yl)-1,3-thiazole-5-carboxylic acid]
IC50: 291 nM

CCOC(=O)c1sc(N2CCC(NC(=O)c3[nH]c(C)c(Cl)c3Cl)/C(=N/OC)C2)nc1C(=O)NCCOC (stereo not shown) [Example 33, Ethyl 2-[(3E)-4-{[(3,4-dichloro-5-methyl-1H-pyrrol-2-yl)carbonyl]amino}-3-(methoxyimino)piperidin-1-yl]-4-{[(2-methoxyethyl)amino]carbonyl}-1,3-thiazole-5-carboxylate]
IC50: 36.9 nM

COCC(COC)(COC)NC(=O)c1nc(N2CC[C@@H](NC(=O)c3[nH]c(C)c(Cl)c3Cl)[C@@H](n3cc(C)nn3)C2)sc1C(=O)O [Example 106]
IC50: < 432 nM

COCC(COC)NC(=O)c1nc(N2CC[C@@H](NC(=O)c3[nH]c(C)c(Cl)c3Cl)[C@@H](n3cc(Cl)nn3)C2)sc1C(=O)O [Example 109]
IC50: < 9.77 nM

COCC(COC)NC(=O)c1nc(N2CC[C@@H](NC(=O)c3[nH]c(C)c(Cl)c3Cl)[C@@H](n3cc(CC#N)nn3)C2)sc1C(=O)O [Example 111]
IC50: < 9.77 nM

Cc1[nH]c(C(=O)N[C@H]2CCN(c3ncc(C(=O)O)s3)C[C@H]2n2cnc(Cl)n2)c(Cl)c1Cl (racemic) [Example 45, cis(±)2-(3-(3-Chloro-1H-1,2,4-triazol-1-yl)-4-{[(3,4-dichloro-5-methyl-1H-pyrrol-2-yl)carbonyl]amino}piperidin-1-yl)-1,3-thiazole-5-carboxylic acid]
IC50: < 9.77 nM

Cc1[nH]c(C(=O)NC2CCN(c3ncc(C(=O)O)s3)CC23OCC(C)(C)CO3)c(Cl)c1Cl (stereo not shown) [Example 57, 2-(11-{[(3,4-Dichloro-5-methyl-1H-pyrrol-2-yl)carbonyl]amino}-3,3-dimethyl-1,5-dioxa-8-azaspiro[5.5]undec-8-yl)-1,3-thiazole-5-carboxylic acid]
IC50: < 9.77 nM

COCCNC(=O)c1nc(N2CCC(NC(=O)c3[nH]c(C)c(Cl)c3Cl)/C(=N/OC)C2)sc1C(=O)O (stereo not shown) [Example 23, 2-[(3E)-4-{[(3,4-Dichloro-5-methyl-1H-pyrrol-2-yl)carbonyl]amino}-3-(methoxyimino)piperidin-1-yl]-4-{[(2-methoxyethyl)amino]carbonyl}-1,3-thiazole-5-carboxylic acid]
IC50: < 9.77 nM

CONC(=O)c1cccc2nc(N3CC[C@@H](NC(=O)c4[nH]c(C)c(Cl)c4Cl)[C@@H](n4ccnn4)C3)sc12 [Example 125, 2-[(3S,4R)-4-{[(3,4-Dichloro-5-methyl-1H-pyrrol-2-yl)carbonyl]amino}-3-(1H-1,2,3-triazol-1-yl)piperidin-1-yl]-N-methoxy-1,3-benzothiazole-7-carboxamide]
IC50: < 9.77 nM

CONC(=O)c1cnc(N2CC[C@@H](NC(=O)c3[nH]c(C)c(Cl)c3Cl)[C@@H](n3ccnn3)C2)s1 [Example 120, 2-[(3S,4R)-4-{[(3,4-Dichloro-5-methyl-1H-pyrrol-2-yl)carbonyl]amino}-3-(1H-1,2,3-triazol-1-yl)piperidin-1-yl]-N-methoxy-1,3-thiazole-5-carboxamide]
IC50: 19.6 nM

COC(=O)c1cnc(N2CC[C@H](NC(=O)c3[nH]c(C)c(Cl)c3Cl)[C@H](n3cnc(Cl)n3)C2)s1 (racemic) [Example 40, cis(±)Methyl 2-(3-(3-chloro-1H-1,2,4-triazol-1-yl)-4-{[(3,4-dichloro-5-methyl-1H-pyrrol-2-yl)carbonyl]amino}piperidin-1-yl)-1,3-thiazole-5-carboxylate]
IC50: 51.9 nM

C=C1COC2(CN(c3ncc(C(=O)O)s3)CCC2NC(=O)c2[nH]c(C)c(Cl)c2Cl)OC1 (stereo not shown) [Example 56, 2-(11-{[(3,4-Dichloro-5-methyl-1H-pyrrol-2-yl)carbonyl]amino}-3-methylene-1,5-dioxa-8-azaspiro[5.5]undec-8-yl)-1,3-thiazole-5-carboxylic acid]
IC50: < 9.77 nM

COC(=O)c1cnc(N2CC[C@H](NC(=O)c3[nH]c(C)c(Cl)c3Cl)[C@H](N=[N+]=[N-])C2)s1 (racemic) [Example 65, cis(±)Methyl 2-(3-azido-4-{[(3,4-dichloro-5-methyl-1H-pyrrol-2-yl)carbonyl]amino}piperidin-1-yl)-1,3-thiazole-5-carboxylate]
IC50: < 9.77 nM

COC(=O)c1sc(N2CCC(NC(=O)c3[nH]c(C)c(Cl)c3Cl)C3(C2)OCCO3)nc1C(C)=O (stereo not shown) [Example 2, Methyl 4-acetyl-2-(10-{[(3,4-dichloro-5-methyl-1H-pyrrol-2-yl)carbonyl]amino}-1,4-dioxa-7-azaspiro[4.5]dec-7-yl)-1,3-thiazole-5-carboxylate]
IC50: 487 nM

COCCNC(=O)c1nc(N2CC[C@@H](NC(=O)c3[nH]c(C)c(Cl)c3Cl)[C@@H](n3cc(Cl)nn3)C2)sc1C(=O)O [Example 108, 2-((3S,4R)-3-(4-Chloro-1H-1,2,3-triazol-1-yl)-4-{[(3,4-dichloro-5-methyl-1H-pyrrol-2-yl)carbonyl]amino}piperidin-1-yl)-4-{[(2-methoxyethyl)amino]carbonyl}-1,3-thiazole-5-carboxylic acid]
IC50: < 9.77 nM

CCOC(=O)c1cccc2nc(N3CC[C@@H](NC(=O)c4[nH]c(C)c(Cl)c4Cl)[C@@H](n4ccnn4)C3)sc12 [Example 123, Ethyl 2-[(3S,4R)-4-{[(3,4-dichloro-5-methyl-1H-pyrrol-2-yl)carbonyl]amino}-3-(1H-1,2,3-triazol-1-yl)piperidin-1-yl]-1,3-benzothiazole-7-carboxy late]
IC50: 218 nM

CCOC(=O)c1cccc2nc(N3CC[C@H](NC(=O)c4[nH]c(C)c(Cl)c4Cl)[C@H](n4ccnc4)C3)sc12 (racemic) [Example 41, cis(±)Ethyl 2-[4-{[(3,4-dichloro-5-methyl-1H-pyrrol-2-yl)carbonyl]amino}-3-(1H-imidazol-1-yl)piperidin-1-yl]-1,3-benzothiazole-7-carboxy late]
IC50: 53.4 nM

COCCNC(=O)c1nc(N2CCC(NC(=O)c3[nH]c(C)c(Cl)c3Cl)C3(C2)OCCO3)sc1C(=O)O (stereo not shown) [Example 14, 2-(10-{[(3,4-Dichloro-5-methyl-1H-pyrrol-2-yl)carbonyl]amino}-1,4-dioxa-7-azaspiro[4.5]dec-7-yl)-4-{[(2-methoxyethyl)amino]carbonyl}-1,3-thiazole-5-carboxylic acid]
IC50: < 9.77 nM

Cc1[nH]c(C(=O)N[C@@H]2CCN(c3ncc(C(=O)O)s3)C[C@@H]2n2cc(Cl)nn2)c(Cl)c1Cl [Example 107]
IC50: < 9.77 nM

COCC(COC)NC(=O)c1nc(N2CC[C@@H](NC(=O)c3[nH]c(C)c(Cl)c3Cl)[C@@H](n3cc(Br)nn3)C2)sc1C(=O)O [Example 113]
IC50: < 9.77 nM

CNC(=O)c1nc(N2CCC(NC(=O)c3[nH]c(C)c(Cl)c3Cl)C3(C2)OCCO3)sc1C(=O)O (stereo not shown) [Example 13, 2-(10-{[(3,4-Dichloro-5-methyl-1H-pyrrol-2-yl)carbonyl]amino}-1,4-dioxa-7-azaspiro[4.5]dec-7-yl)-4-[(methylamino)carbonyl]-1,3-thiazole-5-carboxylic acid]
IC50: < 69 nM

Cc1[nH]c(C(=O)N[C@H]2CCN(c3ncc(C(=O)O)s3)C[C@H]2n2ccnn2)c(Cl)c1Cl (racemic) [Example 119, cis(±)2-[4-{[(3,4-Dichloro-5-methyl-1H-pyrrol-2-yl)carbonyl]amino}-3-(1H-1,2,3-triazol-1-yl)piperidin-1-yl]-1,3-thiazole-5-carboxylic acid]
IC50: 12.3 nM

COCC(COC)NC(=O)c1nc(N2CC[C@@H](NC(=O)c3[nH]c(C)c(Cl)c3Cl)[C@@H](n3ccnn3)C2)sc1C(=O)O [Example 118]
IC50: < 9.77 nM

CCOC(=O)c1sc(N2CCC(NC(=O)c3[nH]c(C)c(Cl)c3Cl)C3(C2)OCCCO3)nc1C(=O)NCCOC (stereo not shown) [Example 7, Ethyl 2-(11-{[(3,4-dichloro-5-methyl-1H-pyrrol-2-yl)carbonyl]amino}-1,5-dioxa-8-azaspiro[5.5]undec-8-yl)-4-{[(2-methoxyethyl)amino]carbonyl}-1,3-thiazole-5-carboxylate]
IC50: 18.5 nM

Cc1[nH]c(C(=O)N[C@H]2CCN(c3ncc(C(=O)O)s3)C[C@H]2n2ccnc2)c(Cl)c1Cl (racemic) [Example 42, cis(±)2-[4-{[(3,4-Dichloro-5-methyl-1H-pyrrol-2-yl)carbonyl]amino}-3-(1H-imidazol-1-yl)piperidin-1-yl]-1,3-thiazole-5-carboxylic acid]
IC50: < 75.6 nM

COC(=O)c1cnc(N2CC[C@H](NC(=O)c3[nH]c(C)c(Cl)c3Cl)[C@H](n3cncn3)C2)s1 (racemic) [Example 39, cis(±)Methyl 2-[4-{[(3,4-dichloro-5-methyl-1H-pyrrol-2-yl)carbonyl]amino}-3-(1H-1,2,4-triazol-1-yl)piperidin-1-yl]-1,3-thiazole-5-carboxylate]
IC50: 33.4 nM
